Data on eight compounds can be found in US9962334B2, “Ophthalmic device having therapeutic agent delivery capability and method of forming same” (Novartis AG, priority 2008, dated 2018).

Marks after values point to notes of the source that are not given here.

For series [1] the following is noted: cited from earlier work.
For series [2] the following is noted: cited from earlier work. The source holds these as a separate data set.
Series [3] has as its system LEC migration and proliferation. Briefly: In vitro inhibition of LEC migration and proliferation. The series is classed as cell-based. To be noted: in vitro studies.

Turning to `O=C1O[C@H]([C@@H](O)CO)C(O)=C1O` [Ascorbic Acid], the “Exp. Log P/Hydrophobicity” value in series [1] is listed as −0.5. For the compound `Nc1c(CC(=O)O)cccc1C(=O)c1ccc(Br)cc1` [Bromfenac], the “Water Solubility” value in series [2] is 0.0126 mg/mL. As to `COc1cc2c(c(OC)c1OC)-c1ccc(OC)c(=O)cc1[C@@H](NC(C)=O)CC2` [Colchicine], in series [1], the “Exp. Log P/Hydrophobicity” value is 1.3 and the “log P (PC log P)” value was 1.3. For the same compound, the “concentration as low as which LEC migration and proliferation was inhibited” value in series [3] is recorded as 0.0005 mg/mL. For `O=C(O)Cc1ccccc1Nc1c(Cl)cccc1Cl` [Diclofenac Sodium], the “log P (PC log P)” value in series [1] is 1.1. As to `O=C(O)Cc1ccccc1Nc1c(Cl)cccc1Cl` [Diclofenac], the “soluble in water up to” value in series [2] is “up to 50 mg/mL”.

Consider `O=C(c1ccccc1)c1ccc2n1CCC2C(=O)O` (stereo not drawn) [Ketorolac], for which, in series [1], the “Exp. Log P/Hydrophobicity” value was 2.1. Moreover, in series [2], the “Water Solubility” value is listed as 25 mg/mL. `CO[C@@]12[C@H](COC(N)=O)C3=C(C(=O)C(C)=C(N)C3=O)N1C[C@@H]1N[C@@H]12` [Mitomycin-C]: the “concentration as low as which LEC migration and proliferation was inhibited” value in series [3] came to 0.0005 mg/mL. On to `NC(=O)Cc1cccc(C(=O)c2ccccc2)c1N` [Nepafenac], for which, in series [1], the “Exp. Log P/Hydrophobicity” value is 2.11* and the “log P (PC log P)” value is given as 2.1.
